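Each compound was tested at five concentrations against cells in 96-well plates for 48 hours. GI50 is the concentration that inhibits growth by half. At the TGI there is no net growth.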
Experiments:
Assay in all cases: DTP human tumour cell line panel, 48 h
HCC-2998 colon = system: HCC-2998 colon
MDA-MB-231 breast = system: MDA-MB-231 breast
PC-3 prostate = system: PC-3 prostate
RPMI-8226 leukemia = system: RPMI-8226 leukemia
SK-OV-3 ovarian = system: SK-OV-3 ovarian
SNB-19 CNS = system: SNB-19 CNS
U251 CNS = system: U251 CNS
UACC-257 melanoma = system: UACC-257 melanoma
HOP-92 NSCLC = system: HOP-92 NSCLC
SF-295 CNS = system: SF-295 CNS

SMILES	TGI (HCC-2998 colon) [µM]	TGI (MDA-MB-231 breast) [µM]	TGI (PC-3 prostate) [µM]	TGI (RPMI-8226 leukemia) [µM]	TGI (SK-OV-3 ovarian) [µM]	TGI (SNB-19 CNS) [µM]	TGI (U251 CNS) [µM]	TGI (UACC-257 melanoma) [µM]	TGI (HOP-92 NSCLC) [µM]	TGI (SF-295 CNS) [µM]	GI50 (HCC-2998 colon) [µM]	GI50 (HOP-92 NSCLC) [µM]	GI50 (MDA-MB-231 breast) [µM]	GI50 (RPMI-8226 leukemia) [µM]	GI50 (SF-295 CNS) [µM]	GI50 (SK-OV-3 ovarian) [µM]	GI50 (SNB-19 CNS) [µM]	GI50 (U251 CNS) [µM]	GI50 (UACC-257 melanoma) [µM]
COc1ccc(N2C(=O)CC(C3CC(C(C)(C)C)CCC3=O)C2=O)cc1 (centres undefined)	> 100	> 100	> 100	> 100	> 100	> 100	> 100	> 100											
Nc1c2c(nc3cc(F)c(F)cc13)CCC2	35.1	> 100	> 100	> 100	> 100	> 100	> 100	> 100	> 100	> 100									
COc1ccc(C2COc3cc(OC(C)=O)c(OC(C)=O)cc3C2)cc1 (centres undefined)	48.3			36.9	82.3	33.4	24.3	46.5	23.6	38.7									
CN(C)CCCNC(=O)c1cc2[nH]c3c(cnc4ccc([N+](=O)[O-])cc43)c(=O)c2n1C	29	30.7		19.3	37.9	33.6	31.3	39.7	32.1	51.4	15.6	13.5	16.9	5.83	26.9	17.3	17.7	17.5	21.2
O=Cc1cn(CCCCCCCCCCCCn2cc(C=O)c3ccccc32)c2ccccc12	> 100	> 100	> 100		> 100	> 100	> 100	> 100	> 100	> 100									
N#Cc1c(-c2ccc(Cl)cc2)c2c([nH]c1=O)-c1ccccc1SC2		> 100	> 100	98.8	> 100	> 100	> 100	> 100	71.9	> 100									
CCCCCCCCCC1(N=[N+]=[N-])C(=O)c2ccccc2N(C)C1=O (centres undefined)	96.2		> 100	> 100	> 100	> 100	6.31	> 100	53.3	> 100									
CC(C)(C)[Si](C)(C)OCC1OC(n2ccc(N)nc2=O)C(O[Si](C)(C)C(C)(C)C)C1O[Si](C)(C)C(C)(C)C (centres undefined)		22.7	3.65		6.36	11.4		10.4	4.71	3.75									
CCCC(=O)n1[nH]c(=O)n(-c2ccc(Cl)cc2)c1=O	> 100	> 100	> 100	> 100	> 100	> 100	> 100	> 100		> 100									
Oc1c(C2=NNC(c3ccc(Cl)cc3Cl)C2)ccc2ccccc12 (centres undefined)	> 100	> 100	> 100	> 100	> 100		> 100	> 100	> 100	> 100									
CCCCN(CCCC)CC(O)c1cc(-c2ccc(C(F)(F)F)cc2)nc(-c2ccc(C(F)(F)F)cc2)c1 (centres undefined)	65.6	> 100	> 100	> 100	> 100	> 100	> 100	> 100	> 100	> 100									
COc1cc(OC)c(-c2ccc(OCc3ccccc3)c3c(OC)cc(C)cc23)c2c1C(C)=N[C@H](C)C2		4.18	3.9	3.61	4.03	4.54	3.91	3.91	3.35	3.78									
CC(C)(C)NC(NC(C)(C)C)=C(/C=C(/Cl)[N+](=O)[O-])[N+](=O)[O-]	> 100	> 100	> 100	> 100	> 100	> 100	> 100	> 100	> 100	> 100									
O=C1NC(NNc2ccccc2)=N/C1=C\c1ccccc1O	> 100	> 100	82	> 100	> 100	> 100	> 100	> 100	> 100	> 100									
O=C1C2CC=CCC2C(=O)N1n1c(Cc2ccc(Cl)cc2)n[nH]c1=O (centres undefined)	> 100	> 100	> 100	> 100	> 100		> 100	> 100	> 100	> 100									
COC(=O)c1cc2c3c(ccc2[nH]1)N(C(=O)c1cc2cc(OC)c(OC)c(OC)c2[nH]1)CC3CCl (centres undefined)	> 100	> 100	> 100	> 21.5	> 100	> 100	> 100	> 100	> 100	> 100									
O=C1C(Cl)N(c2ccc(Cl)cc2)C1c1c[nH]c2ccccc12 (centres undefined)				> 100		> 100	25.7	31.6	45.3	31.5									
NC1CC(=O)c2c(Br)csc21 (centres undefined)	44.8	> 100	> 100	> 100	> 100	> 100	53.1	> 100											
O=C(O)c1ccc(Nc2c3ccccc3nc3ccccc23)cc1	> 100			> 100	> 100	> 100	> 100	> 100	> 100	> 100									
O=c1cc(N2CCOCC2)[nH]c(=O)n1-c1ccc(F)cc1	> 100	> 100	> 100	> 100	> 100	> 100	> 100	> 100		> 100									
COc1cc(C(=O)n2c3ccc(Br)cc3c3nc4ccccc4nc32)cc(OC)c1OC	> 100	> 100	> 100	> 100		> 100	> 100	> 100	> 100	> 100									
